Measured values taken from patent US10233198B2, “Pro-drugs of NSAIAs with very high skin and membranes penetration rates and their new medicinal uses” (Techfields Pharma Co., Ltd., priority 2007, dated 2019).

Legend:
[1] = test system: human breast cancer cells (BCAP-37); assay: Anti-tumor activity, human breast cancer xenograft in nude mice, topical; conditions: day 42; 30 μl of 5% (1.5 mg) topically every 8 hours; BCAP-37 xenograft; in g (unit assumed)
Procedure: For evaluation of anti-tumor activity of the pro-drugs of NSAIAs, human breast cancer cells (BCAP-37, 2-3 mm^3 of tumor tissue was used in each mouse) were subcutaneously xenografted into nude mice (BALE, 12 groups, 7 mice each group). After 14 days, the tumors were growing to the size of 50±10 mm^3 (0.05 ml). Then 30 μl of 5% (equal to 1.5 mg of the pro-drugs) diethylaminoethyl acetylsalicylate.acetylsalicylic acid salt (P-1, in acetone); 1-piperidinepropyl 2[(2,6-dichlorophenyl)amino]benzene acetate.AcOH (P-2, in water), 1-pyrrolidinepropyl 2-(3-benzoylphenyl) propionate.AcOH (P-3, in water), 4-piperidinemethyl 2-(3-phenoxyphenyl)propionate.AcOH (P-4, in water), 3-piperidinemethyl 2-(ρ-isobutylphenyl) propionate.AcOH (P-5, in water), diethylaminoethyl 1-(p-chlorobenzoyl)-5-methoxy-2-methylindole 3-acetate.AcOH (P-11, in water), 2-(4-morpholinyl)ethyl (Z)-5-fluoro-2-methyl-1-[(4-methylsulfinyl) phenylmethylene]-1H-indene-3-acetate.AcOH (P-12, in water), diethylaminoethyl 2-(2,4-dichlorophenoxy)benzeneacetate.AcOH (P-19, in water), diethylaminoethyl 2-(8-methyl-10, 11-dihydro-11-oxodibenz(b,f)oxepin-2-yl)propionate.AcOH (P-37, in water), 1-pyrrolidinepropyl 2-[[(3-(trifluoromethyl)phenyl)amino]benzoate.AcOH (P-48, in water), 4-N,N-dimethylaminobutyryloxy-2-methyl-N-2-pyridinyl-2H,1,2-benzothiazine-3-carb oxamide 1,1-dioxide.HCl (P-51, in acetone) was topically applied to the human breast cancer cells-implanted area (near the front leg) every 8 hours.

[2] = test system: human colon cancer cells (LS174J); assay: Anti-tumor activity, human colon cancer xenograft in nude mice, topical; conditions: for Weight of nude mice: day 30, about 30 μl of 5% (1.5 mg) topically every 8 hours
Procedure: In the second anti-tumor experiment, human colon cancer cells (LS174J, 2-3 mm^3 of tumor tissue was used in each mouse) were subcutaneously xenografted into nude mice (BALB). After 7 days, the tumors were growing to the size of 55±10 mm^3 (0.055 ml). Then about 30 μl of 5% (equal to 1.5 mg of the pro-drugs) diethylaminoethyl acetylsalicylate.acetylsalicylic acid salt (P-1, in acetone); 1-piperidinepropyl 2[(2,6-dichlorophenyl)amino]benzene acetate.AcOH (P-2, in water), 1-pyrrolidinepropyl 2-(3-benzoylphenyl) propionate.AcOH (P-3, in water), 4-piperidinemethyl 2-(3-phenoxyphenyl)propionate.AcOH (P-4, in water), 3-piperidinemethyl 2-(ρ-isobutylphenyl) propionate.AcOH (P-5, in water), diethylaminoethyl 1-methyl-5-(4-methylbenzoyl)-1H-pyrrole-2-acetate.AcOH (P-13, in water), 2-(4-morpholinyl)ethyl 2-amino-3-benzoylbenzeneacetateAcOH (P-16, in water), diethylaminoethyl 2-(10,11-dihydro-10-oxodibenzo(b,f)thiepin-2-yl)propionate.AcOH (P-36), diethylaminoethyl 2-[(2,3-dimethylphenypamino]benzoate.AcOH (P-46, in water), diethylaminoethyl 2-[(2,6-dichloro-3-methylphenyl)amino]benzoate.AcOH (P47, in water), N-(2-thiazoyl)-4-N,N-dimethylaminobutyryloxy-2-methyl-2H,1,2-benzothiazine-3-car boxamide 1,1-dioxide.HCl (P-52, in acetone) was topically applied to the human colon cancer cells-implanted area (near the front leg) every 8 hours.

[3] = In vivo penetration through skin of intact rats; distribution in plasma and tissues
[4] = test system: Chinese White rabbits; assay: Malassezia-induced psoriasis-like lesions; format: in vivo; conditions: 5% aqueous solution applied twice per day; 10 days after the application
Excerpt: COX-1 and COX-2 play a very important role in animal immune-responses. NSAIAs inhibite COX-1 and COX-2. The pro-drugs of NSAIAs in this invention may be very useful for treating psoriasis, discoid lupus erythematosus, systemic lupus erythematosus (SLE), and other autoimmune diseases. Heavy suspensions of Malassezia [Rosenberg, E. W., et al., Mycopathologia, 72, 147-154 (1980)] were applied to the shaved skin on the backs of the Chinese white rabbits (n=4×6) twice (at 7 am and 7 pm) per day for 2 weeks, lesions similar to psoriasis resulted.

[5] = test system: SLAC/GK rats, type 2 diabetes; assay: Blood glucose in type 2 diabetic rats, transdermal; format: in vivo; conditions: no fasting; for Blood glucose, diabetic rats, Baseline: baseline of the treatment group
Excerpt: (§1) The pro-drugs in this invention lower blood glucose levels in rat models (SLAC/GK, type 2 diabetes, n=7). 50% acetone solution of diethylaminoethyl acetylsalicylate.acetylsaficylic acid salt (P-1, in acetone); 4-acetamidophenyl salicylyldimethylaminobutyrate.HCl (P-6), diethylaminoethyl 5-(2,4-difluorophenyl) acetylsalicylate.5-(2,4-difluorophenyl) acetylsalicylic acid salt (P-8), diethylaminoethyl salicylsalicylate.AcOH (P-9), diethylaminoethyl salicylate.AcOH (P-10), diethylaminoethyl 5-acetamido-acetylsalicylate (P-58), diethylaminoethyl acetylsalicylsalicylate. acetylsalicylsalicylic acid salt (P-59), diethylaminoethyl acetylsalicylsalicylate. acetylsalicylsalicylsalicylic acid salt (P-60) (equal to of 20 mg/kg of NSAIAs) were administered transdermally to the backs (about 1.5 cm^2) of rats (fur was shaved) once per day (at 8 am) for 5 weeks. The blood glucose levels were measured once every 3 days at 4 pm (no fasting) from the second week to the fifth week. The blood lipid levels were measured at the end of the fifth week.

[6] = test system: normal rats; assay: Blood glucose in normal rats, transdermal; format: in vivo; conditions: no fasting; for Blood glucose, normal rats, Baseline: baseline of the treatment group
[7] = test system: SLAC/GK rats, type 2 diabetes; assay: Blood lipid levels in type 2 diabetic rats, transdermal; format: in vivo
Excerpt: as §1

[8] = test system: SLAC:NOD-IDDM mice, type 1 diabetes; assay: Blood glucose in type 1 diabetic mice, transdermal; format: in vivo; conditions: no fasting; for Blood glucose, type I diabetic mice, Baseline: baseline of the treatment group; for Blood glucose, type I diabetic mice, Average: transdermal, equal to 20 mg/kg of NSAIAs once per day for 7 weeks, fourth to seventh week
Excerpt: The pro-drugs in this invention lower blood glucose levels in mouse models (SLAC:NOD-IDDM, type 1 diabetes, n=7). 20% acetone solution of diethylaminoethyl acetylsalicylate.acetylsalicylic acid salt (P-1, in acetone); 4-acetamidophenyl salicylyldimethylaminobutyrate.HCl (P-6), diethylaminoethyl 5-(2,4-difluorophenyl) acetylsalicylate.5-(2,4-difluorophenyl) acetylsalicylic acid salt (P-8), diethylaminoethyl salicylsalicylate.AcOH (P-9), diethylaminoethyl salicylate.AcOH (P-10), diethylaminoethyl 5-acetamido-acetylsalicylate (P-58), diethylaminoethyl acetylsalicylsalicylate. acetylsalicylsalicylic acid salt (P-59), diethylaminoethyl acetylsalicylsalicylate. acetylsalicylsalicylsalicylic acid salt (P-60) (equal to of 20 mg/kg of NSAIAs) were administered transdermally to the backs (about 1 cm^2) of mice (fur was shaved) once per day (at 8 am) for 7 weeks. The blood glucose levels were measured once every 3 days at 3 pm (no fasting) from the fourth week to the seventh week.

[9] = test system: Chinese White rabbits; assay: Autologous blood clot pulmonary embolism model, thrombus propagation; format: in vivo; conditions: 15 mg/kg topically on the back; after 2 days
Procedure: Eighteen Chinese White rabbits weighing between 3.0 and 3.5 kg (aged 6-7 months) were selected and divided into three groups (control, P-1 and […] groups, n=6). One hour before the experiment, thrombi were made by aspirating venous blood (1 ml) into a sterilized bottle to clot. To avoid fragmentation and slow lysis, the autologous blood clots were stabilized in temperature-controlled (70° C.) distilled water for 10 min. After anesthesia, the femoral veins were exposed and distally isolated, and autologous blood clots (0.05 g/kg) were injected through an indwelling catheter (20GA), which had been placed in the femoral vein isolated earlier. 50% acetone solution of diethylaminoethyl acetylsalicylate.acetylsalicylic acid salt (P-1, in acetone, 15 mg/kg) and diethylaminoethyl acetylsalicylsalicylate.acetylsalicylsalicylic acid salt (P-59, 15 mg/kg) were topically applied to the back of the rabbits. After 2 days, rabbits were euthanized with an excessive intravenous injection of sodium amobarbital (60 mg/kg). The lungs and hearts were isolated to observe whether thrombi were present in the pulmonary arteries. The lungs were immersed in 10% formalin for 24 h. Consecutive transverse sections along the obstructed pulmonary arteries were paraffin-embedded and stained with hematoxylin-eosine. […]

[10] = prodrug versus testosterone (TS); cited from earlier work
[11] = 4 hours after 20% P-2 in 1 ml ethanol on about 5 cm^2 of rat back

CC(=O)O.O=C(Cc1ccccc1Nc1c(Cl)cccc1Cl)OCCCN1CCCCC1 [P-2, 1-piperidinepropyl 2[(2,6-dichlorophenyl)amino]benzene acetate.AcOH]
Weight of nude mice [1]: 22 ± 2 | Weight of nude mice [2]: 22 ± 2 | Brain level of prodrug or metabolite [3, 11]: 25 ± 6 µg/g | Kidney level of prodrug or metabolite [3, 11]: 20 ± 6 µg/g | Liver level of prodrug or metabolite [3, 11]: 22 ± 8 µg/g | Plasma level of prodrug or metabolite [3, 11]: 40000 ± 10000 ng/mL

CC(=O)O.CCN(CC)CCOC(=O)Cc1ccc(C(=O)c2ccc(C)cc2)n1C [P-13, diethylaminoethyl 1-methyl-5-(4-methylbenzoyl)-1H-pyrrole-2-acetate.AcOH]
Weight of nude mice [2]: 21 ± 2 | Psoriasis-like lesions [4]: the lesions were resolved

CC(C(=O)O)c1cccc(C(=O)c2ccccc2)c1 (stereo not shown) [ketoprofen, reference compound]
Drug found in rat tissues or plasma after topical application of the parent drug itself ([3]; 4 hours after 20% parent drug in 1 ml ethanol on about 5 cm^2 of rat back, blood, liver, kidney, brain): None of these drugs was found

CC(=O)Oc1ccccc1C(=O)O.CCN(CC)CCOC(=O)c1ccccc1OC(C)=O [P-1, diethylaminoethyl acetylsalicylate.acetylsalicylic acid salt]
Blood glucose, diabetic rats, Baseline [5]: 16.1 ± 3 mmol/L | Blood glucose, normal rats, Baseline [6]: 6.4 ± 1 mmol/L | Blood glucose, normal rats, Average ([6]; transdermal, equal to 20 mg/kg of NSAIAs once per day for 5 weeks, second to fifth week): 6.3 ± 1 mmol/L | Triglycerides, Baseline ([7]; baseline of the treatment group): 5.9 ± 0.5 mmol/L | Blood glucose, type I diabetic mice, Baseline [8]: 26.1 ± 5 mmol/L | Blood glucose, type I diabetic mice, Average [8]: 6.5 ± 1 mmol/L | Histology of lung tissue and vascular walls after clot injection [9]: both lung tissue and vascular walls were normal

CN(C)CCCC(=O)O[C@H]1CC[C@H]2[C@@H]3CCC4=CC(=O)CC[C@]4(C)[C@H]3CC[C@]12C.Cl [TSBH, testosteronyl-4-dimethylaminobutyrate.HCl]
Diffusion through human skin, times faster than the drug (TS) itself [10]: ~60 times

CN(C)CCCC(=O)OC1=C(C(=O)Nc2nccs2)N(C)S(=O)(=O)c2ccccc21.Cl [P-52, N-(2-thiazoyl)-4-N,N-dimethylaminobutyryloxy-2-methyl-2H,1,2-benzothiazine-3-car boxamide 1,1-dioxide.HCl]
Tumor size ([2]; day 30, about 30 μl of 5% (1.5 mg) topically every 8 hours from day 7): 690 ± 250 mm^3

CC(=O)Oc1ccccc1C(=O)Oc1ccccc1C(=O)O.CCN(CC)CCOC(=O)c1ccccc1OC(=O)c1ccccc1OC(C)=O [P-59, diethylaminoethyl acetylsalicylsalicylate. acetylsalicylsalicylic acid salt]
Blood glucose, diabetic rats, Baseline [5]: 16.3 ± 3 mmol/L | Blood glucose, diabetic rats, Average ([5]; transdermal, equal to 20 mg/kg of NSAIAs once per day for 5 weeks, measured every 3 days, second to fifth week): 8.7 ± 1 mmol/L | Blood glucose, normal rats, Baseline [6]: 7.2 ± 1 mmol/L | Triglycerides, Average ([7]; end of fifth week, transdermal, equal to 20 mg/kg of NSAIAs once per day): 2.9 ± 0.2 mmol/L | Blood glucose, type I diabetic mice, Baseline [8]: 24.3 ± 3 mmol/L | Blood glucose, type I diabetic mice, Average [8]: 8.7 ± 1 mmol/L | Histology of lung tissue and vascular walls after clot injection [9]: both lung tissue and vascular walls were normal

CC(=O)O.O=C(OCCCN1CCCC1)c1ccccc1Nc1cccc(C(F)(F)F)c1 [P-48]
Weight of nude mice [1]: 22 ± 3

CC(=O)O.CCN(CC)CCOC(=O)Cc1c(C)n(C(=O)c2ccc(Cl)cc2)c2ccc(OC)cc12 [P-11, diethylaminoethyl 1-(p-chlorobenzoyl)-5-methoxy-2-methylindole 3-acetate.AcOH]
Weight of nude mice [1]: 21 ± 2

CC(=O)O.CCN(CC)CCOC(=O)COC(=O)Cc1c(C)n(C(=O)c2ccc(Cl)cc2)c2ccc(OC)cc12 [P-20]
Psoriasis-like lesions [4]: the lesions were resolved
